Experimental data reported in patent publication US9884091B2, “Treatment of neurological diseases” (Lancaster University Business Enterprises Limited, priority 2014, dated 2018).

How the values were obtained:
[1] = test system: APP/PS1 mouse model of AD; conditions: 12 months old APP/PS1 mice; cited from earlier work
[2] = test system: APP/PS1 transgenic mice; assay: Synaptic densities (synaptophysin immunohistochemistry) in cortex, transgenic Alzheimer's disease mouse model; assay type: in vivo; conditions: FIG. 2; 25 nmol/kg i.p. once daily for 8 weeks
Text: (§1) Transgenic Alzheimer's Disease Mouse Model
(§2) Animal models have been developed to test novel drugs. A standard model for Alzheimer's disease is transgenic mice that express human mutated genes for amyloid production that are known to induce Alzheimer's disease in humans. These APP/PS1 transgenic mice recapitulate some of the symptoms of Alzheimer's disease such as the aggregation of amyloid in the brain, memory loss and the loss of synapses (Radde et al., 2006).
(§3) The APP/PS1 mice express human Swedish mutated APP and human mutated presenilin-1 which induce Alzheimer's Disease in humans.
(§4) The dose of peptide tested was 25 nmol/kg body weight. The peptides were administered by a once-daily intraperitoneal injection for 8 weeks. Saline injections were administered as a control. Five animals per group were injected with a peptide or a saline control.
(§5) Brain Tissue Analysis for Amyloid Plaques and Synapse Numbers in AD Mice
(§6) Animals (5 per group) were perfused transcardially with 30 ml of ice-cold PBS and 30 ml of ice-cold 4% paraformaldehyde to postfix the brain. The brains were removed and placed in fresh 30% sucrose solution in PBS to cryoprotect tissue and cut at a thickness of 40 μm on a cryostat. Sections were chosen according to stereological rules, with the first section taken at random and every 5th section afterwards. Between 7 and 13 sections were analysed per brain. […]

[3] = test system: C57BL/6 mice given MPTP; assay: Rotarod motor control test, MPTP Parkinson mouse model; assay type: in vivo; conditions: FIG. 3; 25 nmol/kg i.p. once daily
Text: (§7) A standard model to induce Parkinson like symptoms in mice is the injection of the chemical (MPTP) (Li et al., 2009). This chemical impairs or kills neurons in the brain that produce dopamine. The mice develop motor impairments, and the dopaminergic neurons in the brain are reduced in numbers and function. The enzyme tyrosine hydroxylase (TH) is required to synthetise dopamine. A loss of TH signifies a loss of dopamine production (Harkavyi et al., 2008).
(§8) Adult male C57BL/6 mice were given the dopaminergic toxin MPTP (20 mg/kg in 0.1 mL of PBS i.p. at 2-h intervals of 4 doses MPTP; Sigma) or vehicle (PBS). This treatment selectively affects dopaminergic neurons and induces Parkinson-like symptoms in mice.
as §4
Rotarod Motor Control Test
The rotarod consists of a rotating pole that accelerates over time. Mice are placed on the rod, and motor skills are tested by accelerating the rotation. As the rotation increases, animals lose grip and fall on a cushion located below the rod. […] Each animal's endurance time was recorded, and the average was calculated. Data were analysed using a one-way ANOVA with post-hoc Bonferroni tests.

[4] = test system: APP/PS1 transgenic mice; assay: Beta-amyloid plaque load in cortex by immunohistochemistry, transgenic Alzheimer's disease mouse model; assay type: in vivo; conditions: FIG. 1; 25 nmol/kg i.p. once daily for 8 weeks
Text: as §1, §2, §3, §4, §5, §6

[5] = test system: C57BL/6 mice given MPTP; assay: Open-field motor activity task, MPTP Parkinson mouse model; assay type: in vivo; conditions: FIG. 4; 25 nmol/kg i.p. once daily
Text: as §7, §8, §4
Open-Field Motor Activity Task
Mice (6 per group) received a session of 5 min in the empty open-field (58 cm in diameter; 35 cm high walls) with painted grey walls and grey floor. […] Motor activity was recorded by total path length and travel speed. Data were analysed using two-way ANOVA with post-hoc tests.

D-Ala^2-GIP
amyloid plaque load [1]: much reduced | synaptic plasticity in area CA1 of the hippocampus and spatial memory formation [1]: unimpaired

YXEGTFTSDYSIYLDKQAAXEFV[Cys-40 kDAPEG]WLLAGGPSSGAPPPS[Lys-γE-C16]-NH2 (YXEGTFTSDYSIYLDKQAAXEFVXWLLAGGPSSGAPPPSX; 40 kDa PEG on Cys24; Lys γGlu-C16; C-amide; GIP/GLP1 co-agonist peptide; VARIANT 2, 20 Xaa = amino-isobutyric acid; VARIANT 24 Xaa = Cys with a covalently linked PEG molecule having an average molecular weight of 40kDa; VARIANT 40 Xaa = lysine residue connected to gamma- glutamate and C16, wherein C16 is a saturated fatty acid or palmitate) [DA2, pegylated version of DA1, position 24 modified to cysteine, γ-Glu spacer linking the C16 fatty acid]
synapse loss in the cortex (synaptic densities) [2]: protected from synapse loss | impairment of motor skills induced by MPTP (rotarod endurance time) [3]: protect mice from an impairment of motor skills | beta-amyloid plaque load in the cortex (% area positive for beta amyloid) [4]: reduces beta-amyloid plaque load | beta-amyloid plaque load, compared with single GIP or GLP-1 analogues [4]: superior to the single GIP or GLP-1 analogues | impairment of motor activity induced by MPTP [5]: protect mice from an impairment of motor activity
